According to patent US12251444B2, “Compositions and methods for delivering an agent to a wound” (priority 2009, dated 2025):

Tests used:
Pseudomonas aeruginosa = test: Turbidity/growth assay of sponge elution samples against Pseudomonas aeruginosa; assay type: cell-based; conditions: eluate of amikacin-loaded 61/71 DDA chitosan sponge
Experimental: To determine whether agents eluted from the sponges could be used to inhibit bacterial growth, zone of inhibition (ZOI) studies were carried out (FIGS. 3A-3D). Chitosan sponges loaded with a single antibiotic or combinations of antibiotics, as above, were analyzed for their ability to inhibit bacterial growth. For the assays to determine inhibition of bacterial growth, the bacterial strains Pseudomonas aeruginosa and Staphylococcus aureus were used. Results showing the inhibition of Pseudomonas aeruginosa and Staphylococcus aureus are shown at Tables 2 and 3, respectively.
Drug activity of the aliquots was tested using a turbidity assay. Two different strains of bacteria were used in this study. Vancomycin samples were tested against Staphylococcus aureus and amikacin samples were tested against both Staphylococcus aureus and Pseudomonas aeruginosa. 200 μl of each aliquot was added to 1.8 ml of Mueller-Hinton II broth combined with 20 μl of S. aureus inoculum. Amikacin samples (200 μl) were also added to 1.75 ml of trypticase soy broth (TSB) and 50 μl of P. aeruginosa inoculum. Samples were incubated for 24 hours at 37 C. Absorbance measurements were recorded after incubation at a wavelength of 530 nm (A530).
Drug activity of the aliquots was tested using a turbidity assay. Samples were tested against Pseudomonas aeruginosa. […] Absorbance measurements at 530 nm on a spectrophotometer (BioTek).

[1] = Antibiotic elution from sterilized chitosan sponges in PBS (TDx); assay type: physicochemical; conditions: for effect of a co-loaded antibiotic on release from chitosan sponge: sponges hydrated with 5 mg/ml single or combined antibiotics, 20 ml PBS
Experimental: In a preferred approach adopted for use in the goat wound treatment model described in Example 2, 2.5 grams of chitosan was dissolved in 247.5 ml of 1 (v/v) % blended acid solvent. The mixture contained 75%/25% lactic to acetic acid. This mixture was stirred for 4-6 hours at maximum allowable speed on a stir plate. The chitosan solution was filtered to remove undissolved chitosan. 25 ml of chitosan solution was pipetted into small aluminum weigh dishes ([…]). Each dish was frozen at […] freezer for 1 hour. The frozen samples were then placed into a freeze-dryer and lyophilize for 48 hours. Sponge samples were neutralized in 0.175 M NaOH— solution for ˜30-40 seconds. The sponges were rinsed repeatedly in containers filled with distilled water and pH changes were monitored until the rinsing water was neutral in pH. The re-hydrated sponges were then incubated at −80 C freezer for 1 hour and re-lyophilized for 24-48 hours. The sponges were then sterilized using low-dose gamma irradiation at Wright Medical (25-32 kGy).
Sponges were subjected to elution tests by submerging hydrated sponges into 20 ml of 1× Phosphate Buffered Saline (PBS), kept in a 37° C. incubator for the duration of the study. […] One ml aliquots were taken at 1, 3, 6, 24, 48, and 72 hours. Aliquots were tested for antibiotic concentration using a fluorescence polarization immunoassay technique (TDx, Abbott Labs, Abbott Park, IL).

[2] = Amikacin and vancomycin elution from sterilized chitosan films; assay type: physicochemical; conditions: films soaked in 5 mg/ml antibiotic 2 minutes, 50 ml sterile saline, refreshed
Experimental: Agent elution from chitosan films was also analyzed (FIG. 1C). Sterilized chitosan films were loaded with amikacin and vancomycin. […] The elution was done in 50 ml of sterile saline solution and completely refreshed at each time point. The elution was carried out for 3 days. The values shown in FIG. 1C are expressed in μg/ml.
Elution data from chitosan films is provided at Table 4. […] The elution was done in 50 ml of sterile saline solution and completely refreshed at each time point. The elution was carried out for 3 days. The values shown on the graph are in μg/ml.
In one approach, samples were submerged into 15 ml amikacin solution (5 mg/ml) and allowed to hydrate for 2 minutes. Samples were then subjected to elution tests by submerging the films in 50 ml of 1× Phosphate Buffered Saline (PBS) and agitated in a 37 C incubator for the duration of the study. One ml aliquots were removed at 1, 3, 6, 24, 48, and 72 hours. Aliquots were tested for antibiotic concentration using a fluorescence polarization immunoassay technique (TDxFLx, Abbott Labs, Abbott Park, IL).

[3] = Antibiotic elution from sponge fragments retrieved from goats; assay type: physicochemical, goat
From the text: Sponge fragments remained in 8 of the 10 goats treated with chitosan sponges.

in vivo = conditions: goat
[4] = test system: S. aureus (Cowan I strain); test: Turbidity assay of film eluates against S. aureus; assay type: cell-based, Staphylococcus aureus; conditions: 48 and 72 hr eluate samples from chitosan films
Experimental: In other studies, antibiotic activity against S. aureus (Cowan I strain) was determined by utilizing the remaining antibiotic elution samples, in triplicate, in a turbidity assay. In this turbidity study, solution clarity after sufficient bacterial incubation with antibiotic eluates indicated bacterial inhibition due to antibiotic activity.
Blanks containing neither S aureus nor eluate samples, positive controls containing S aureus without antibiotic eluates, and negative controls containing both S aureus and high concentration antibiotic standards were mixed and incubated at 37° C. along with the eluate samples. After 24 hours of incubation, the tubes were vortexed and the absorbance at 530 nm of each inoculum solution was recorded using a spectrophotometer.

[5] = 5 mg/ml solution (sponge loading)

SMILES | effect of a co-loaded antibiotic on release from chitosan sponge [1] | elution from sterilized chitosan films ([2]; 1 hour) [µg/mL] | elution from sterilized chitosan films ([2]; 3 hours) [µg/mL] | elution from sterilized chitosan films ([2]; 6 hours) [µg/mL] | elution from sterilized chitosan films ([2]; 24 hours) [µg/mL] | elution from sterilized chitosan films ([2]; 48 hours) [µg/mL] | elution from sterilized chitosan films ([2]; 72 hours) [µg/mL] | inhibition of S. aureus growth by film eluates [4] | other results
NCC[C@H](O)C(=O)N[C@@H]1C[C@H](N)[C@@H](O[C@H]2O[C@H](CN)[C@@H](O)[C@H](O)[C@H]2O)[C@H](O)[C@H]1O[C@H]1O[C@H](CO)[C@@H](O)[C@H](N)[C@H]1O [amikacin] | vancomycin nor daptomycin affected the release of amikacin | 50.63 ± 4.49 | 2.15 ± 1.13 | 3.17 ± 1.14 | 3.93 ± 0.57 | 4.7 ± 2.49 | 0.6 ± 0.48 | – | Bacterial growth inhibition of P. aeruginosa (Pseudomonas aeruginosa; after 72 hours): 93.1%; Bacterial growth inhibition of P. aeruginosa (Pseudomonas aeruginosa; after one hour): 98.7%; 12 hr TDx reading, antibiotic elution from remaining sponge fragments, Mean ([3]; goat, 12 h): 0.60 µg/mL/g; concentration at 6 h (in vivo): 526 ± 478 ng/mL; concentration at 12 h (in vivo): 200 ng/mL; concentration at 24 h (in vivo): 200 ng/mL; concentration at 36 h (in vivo): 200 ng/mL; concentration at 42 h (in vivo): 200 ng/mL
CCCCCCCCCC(=O)N[C@@H](Cc1c[nH]c2ccccc12)C(=O)N[C@H](CC(N)=O)C(=O)N[C@@H](CC(=O)O)C(=O)N[C@@H]1C(=O)NCC(=O)N[C@@H](CCCN)C(=O)N[C@@H](CC(=O)O)C(=O)N[C@H](C)C(=O)N[C@@H](CC(=O)O)C(=O)NCC(=O)N[C@H](CO)C(=O)N[C@@H]([C@H](C)CC(=O)O)C(=O)N[C@@H](CC(=O)c2ccccc2N)C(=O)O[C@@H]1C [daptomycin] | Amikacin did not affect the release of daptomycin | – | – | – | – | – | – | active in inhibiting the growth of S. aureus | release from chitosan sponge compared with the other tested antibiotics ([1]; 72 hour time point, sponges hydrated with 5 mg/ml, one antibiotic per sponge): significantly less than the other two tested antibiotics
CN[C@H](CC(C)C)C(=O)N[C@H]1C(=O)N[C@@H](CC(N)=O)C(=O)N[C@H]2C(=O)N[C@H]3C(=O)N[C@H](C(=O)N[C@H](C(=O)O)c4cc(O)cc(O)c4-c4cc3ccc4O)[C@H](O)c3ccc(c(Cl)c3)Oc3cc2cc(c3O[C@@H]2O[C@H](CO)[C@@H](O)[C@H](O)[C@H]2O[C@H]2C[C@](C)(N)[C@H](O)[C@H](C)O2)Oc2ccc(cc2Cl)[C@H]1O [vancomycin] | amikacin did not affect the release of vancomycin | 83.45 ± 17.25 | 19.35 ± 7.98 | 0.58 ± 0.88 | 2.53 ± 0.66 | 9.72 ± 1.92 | 6.13 ± 0.39 | active in inhibiting the growth of S. aureus | 12 hr TDx reading, antibiotic elution from remaining sponge fragments, Mean ([3]; mean of 4 goats, fragments retrieved after 42 hours in vivo, 20 ml sterile saline, 37° C., 12 hours): 3.78 µg/mL/g; concentration at 6 h (in vivo; [5]): 1630 ± 646 ng/mL; concentration at 12 h (in vivo; [5]): 703 ± 348 ng/mL; concentration at 24 h (in vivo; [5]): 845 ± 539 ng/mL; concentration at 36 h (in vivo; [5]): 740 ± 477 ng/mL; concentration at 42 h (in vivo; [5]): 275 ± 70 ng/mL
